Measurements from patent publication US10138255B2, “Piperazine derivatives as HIV protease inhibitors” (Merck Sharp & Dohme Corp., priority 2014, dated 2018).

Tested on: HIV-1 (H9IIIB strain)
Assay: Cell-Based HIV Infection Assay Using a Reporter (MT4-GFP cells)
Settings: Human immunodeficiency virus 1, inflection point (IP) of viral growth inhibition; MT4-GFP cells infected with HIV-1 H9IIIB; 50% normal human serum; mean of at least two independent experiments; read-out: Cell Based IP (50% NHS)
Method: Cell-Based HIV Infection Assay Using a Reporter (“Cell-Based”):
MT4-GFP cells contain a stably integrated HIV long terminal repeat promoter directing the transcription of green fluorescent protein (GFP). When HIV infects the cell, GFP is produced and the cell becomes green. MT4-GFP cells (250,000 cells/mL) were bulk-infected with HIV-1 (H9IIIB strain) at low multiplicity of infection (MOI) in RPM 1640 media, supplemented with 10% FBS for 24 h. Cells were then washed once in RPMI 1640 plus 10% FBS and resuspended in RPMI plus 50% normal human serum (NHS). Test compounds were serial-diluted in DMSO using an ECHO liquid dispenser. A control well included a combination of three HIV drugs (an inhibitor of HIV protease, integrase strand transfer and a non-nucleoside reverse transcriptase inhibitor; triple drug). The infected MT4-GFP cells were added to a 384-well poly-D-lysine coated black plate with clear bottom in which the diluted test compounds were placed. The cells were seeded in the plate at 8,000 cells per well and the final DMSO concentration was 0.4%. Infected cells were quantified at both 24 and 48 h post incubation using an Acumen eX3 plate reader. Viral reproductive ratio (R0) was determined using the number of infected cells at 48 h divided by the number of infected cells at 24 h. Percent viral growth inhibition was calculated by [1−(R−Rtripledrug)/(RDMSO−Rtripledrug)]*100. Compound potency inflection point (IP) was determined with use of a 4-parameter dose response curve analysis.
Data shown in the table reflects the mean of at least two independent experiments.

Row | Structure (SMILES) | EC50 [nM]
1 | C[C@@H]1CC([C@H](c2ccc(Cl)c(F)c2)[C@H](N)C(=O)Nc2cncc(F)c2CC[C@H]2CN[C@@H]3CCCS(=O)(=O)N2C3)C[C@H](C)O1 (stereo partly drawn) [Example 245, (2S,3R)-2-amino-3-(4-chloro-3-fluorophenyl)-3-((2R,6S)-2,6-dimethyltetrahydro-2H-pyran-4-yl)-N-(4-(2-((6R,9S)-2,2-dioxido-2-thia-1,7-diazabicyclo[4.3.1]decan-9-yl)ethyl)-5-fluoropyridin-3-yl)propanamide] | 5.8
2 | COC(=O)N[C@H](C(=O)Nc1cccc(F)c1CC[C@H]1CNC2CCCS(=O)(=O)N1C2)[C@@H](c1ccc(Cl)cc1)[C@H]1CCOC(C)(C)C1 (stereo partly drawn) [Example 43, methyl {(1S,2R)-2-(4-chlorophenyl)-2-[(4S)-2,2-dimethyltetrahydro-2H-pyran-4-yl]-1-[(2-{2-[(9S)-2,2-dioxido-2-thia-1,7-diazabicyclo[4.3.1]dec-9-yl]ethyl}-3-fluorophenyl)carbamoyl]ethyl}carbamate] | 8.5
3 | COc1ccc([C@H](c2ccc(Cl)cc2)[C@H](N)C(=O)Nc2cccc(F)c2CCC2CNC3CCCS(=O)(=O)N2C3)cn1 (stereo partly drawn) [Example 45, (βS)-4-chloro-N-{2-[2-(2,2-dioxido-2-thia-1,7-diazabicyclo[4.3.1]dec-9-yl)ethyl]-3-fluorophenyl}-β-(6-methoxypyridin-3-yl)-L-phenylalaninamide] | 3.8
4 | COC(=O)N[C@H](C(=O)N[C@H]1CCC[C@@H]1CC[C@H]1CN[C@@H]2CCCS(=O)(=O)N1C2)C(c1ccc(F)cc1)c1ccc(F)cc1 [Example 49, methyl [(1S)-1-[bis(4-fluorophenyl)methyl]-2-{[(1S,2R)-2-{2-[(6R,9S)-2,2-dioxido-2-thia-1,7-diazabicyclo[4.3.1]dec-9-yl]ethyl}cyclopentyl]amino}-2-oxoethyl]carbamate] | 18
5 | N[C@H](C(=O)Nc1cccc(F)c1CC[C@H]1CNC2CCCS(=O)(=O)N1C2)C1(c2ccc(Cl)cc2)CCOCC1 (stereo partly drawn) [Example 40, (2S)-2-amino-2-[4-(4-chlorophenyl)tetrahydro-2H-pyran-4-yl]-N-(2-{2-[(9S)-2,2-dioxido-2-thia-1,7-diazabicyclo[4.3.1]dec-9-yl]ethyl}-3-fluorophenyl)ethanamide] | 99
6 | CC1(C)C[C@@H]([C@H](c2ccc(Cl)c(F)c2)[C@H](N)C(=O)Nc2cncc(F)c2CC[C@H]2CN[C@@H]3CCCS(=O)(=O)N2C3)CCO1 [Example 243, (2S,3R)-2-amino-3-(4-chloro-3-fluorophenyl)-3-((S)-2,2-dimethyltetrahydro-2H-pyran-4-yl)-N-(4-(2-((6R,9S)-2,2-dioxido-2-thia-1,7-diazabicyclo[4.3.1]decan-9-yl)ethyl)-5-fluoropyridin-3-yl)propanamide] | 8
7 | Cn1nc(C(F)(F)F)cc1[C@H](c1ccc(Cl)c(F)c1)[C@H](N)C(=O)Nc1cccc(F)c1CC[C@H]1CN[C@@H]2CCCS(=O)(=O)N1C2 [Example 267, (βR)-4-chloro-N-(2-{2-[(6R,9S)-2,2-dioxido-2-thia-1,7-diazabicyclo[4.3.1]dec-9-yl]ethyl}-3-fluorophenyl)-3-fluoro-β-[1-methyl-3-(trifluoromethyl)-1H-pyrazol-5-yl]-L-phenylalaninamide] | 8
8 | CO[C@H]1CC[C@H]([C@H](c2ccc(F)cc2)[C@H](N)C(=O)N[C@H]2CCCC[C@@H]2CC[C@H]2CN[C@@H]3CCCS(=O)(=O)N2C3)CC1 [Example 189, (βR)-N-[(1S,2R)-2-{2-[(6R,9S)-2,2-dioxido-2-thia-1,7-diazabicyclo[4.3.1]dec-9-yl]ethyl}cyclohexyl]-4-fluoro-β-[(1r,4R)-4-methoxycyclohexyl]-L-phenylalaninamide] | 45
9 | CC(C)[C@H](c1ccc(Cl)cc1)[C@H](N)C(=O)Nc1cccc(F)c1CCC1CNC2CCCS(=O)(=O)N1C2 (stereo partly drawn) [Example 38, (βR)-4-chloro-N-{2-[2-(2,2-dioxido-2-thia-1,7-diazabicyclo[4.3.1]dec-9-yl)ethyl]-3-fluorophenyl}-β-(1-methylethyl)-L-phenylalaninamide] | 28
10 | CC1CC[C@@H]2CN([C@@H](CCc3c(F)cccc3NC(=O)[C@@H](N)[C@@H](c3ccc(F)cc3)C3C[C@@H](C)O[C@@H](C)C3)CN2)S1(=O)=O (stereo partly drawn) [Example 110, (βR)-β-[(2R,6S)-2,6-dimethyltetrahydro-2H-pyran-4-yl]-4-fluoro-N-(3-fluoro-2-{2-[(6R,9S)-3-methyl-2,2-dioxido-2-thia-1,7-diazabicyclo[4.3.1]dec-9-yl]ethyl}phenyl)-L-phenylalaninamide] | 55
11 | CC(C)Oc1cc([C@H](c2ccc(Cl)cc2)[C@H](N)C(=O)Nc2cccc(F)c2CCC2CNC3CCCS(=O)(=O)N2C3)ccn1 (stereo partly drawn) [Example 17, (βS)-4-Chloro-N-{2-[2-(2,2-dioxido-2-thia-1,7-diazabicyclo[4.3.1]dec-9-yl)ethyl]-3-fluorophenyl}-β-[2-(1-methylethoxy)pyridin-4-yl]-L-phenylalaninamide] | 8.9
12 | COC(=O)N[C@H](C(=O)Nc1cccc(F)c1CC[C@H]1CNC2CCCS(=O)(=O)N1C2)C1(c2ccc(Cl)cc2)CCOCC1 (stereo partly drawn) [Example 42, methyl {(1S)-1-[4-(4-chlorophenyl)tetrahydro-2H-pyran-4-yl]-2-[(2-{2-[(9S)-2,2-dioxido-2-thia-1,7-diazabicyclo[4.3.1]dec-9-yl]ethyl}-3-fluorophenyl)amino]-2-oxoethyl}carbamate] | 31
13 | COC(=O)N[C@H](C(=O)Nc1cccc(F)c1CC[C@H]1CN[C@@H]2CCCS(=O)(=O)N1C2)[C@]1(c2ccc(Cl)cc2)CC[C@H](OC)CC1 [Example 125, methyl {(1S)-1-[cis-1-(4-chlorophenyl)-4-methoxycyclohexyl]-2-[(2-{2-[(6R,9S)-2,2-dioxido-2-thia-1,7-diazabicyclo[4.3.1]dec-9-yl]ethyl}-3-fluorophenyl)amino]-2-oxoethyl}carbamate] | 71
14 | N[C@H](C(=O)Nc1cncc(F)c1CC[C@H]1CN[C@@H]2CCCS(=O)(=O)N1C2)[C@@H](c1ccc(Cl)cc1)C1CCC(F)(F)CC1 [Example 241, (2S,3R)-2-amino-3-(4-chlorophenyl)-3-(4,4-difluorocyclohexyl)-N-(4-(2-((6R,9S)-2,2-dioxido-2-thia-1,7-diazabicyclo[4.3.1]decan-9-yl)ethyl)-5-fluoropyridin-3-yl)propanamide] | 7.3
15 | N[C@H](C(=O)N[C@H]1CCCC[C@@H]1CC[C@H]1CN[C@@H]2CCCS(=O)(=O)N1C2)C(c1ccc(F)cc1)c1ccc(F)cc1 [Example 93, N-[(1S,2R)-2-{2-[(6R,9S)-2,2-dioxido-2-thia-1,7-diazabicyclo[4.3.1]dec-9-yl]ethyl)cyclohexyl]-4-fluoro-β-(4-fluorophenyl)-L-phenylalaninamide] | 56
16 | COC(=O)N[C@H](C(=O)Nc1cccc(C(F)(F)F)c1CC[C@H]1CN[C@@H]2CCCS(=O)(=O)N1C2)[C@@H](c1ccc(F)cc1)C1C[C@@H](C)O[C@@H](C)C1 (stereo partly drawn) [Example 203, methyl [(1S,2R)-2-[(2R,6S)-2,6-dimethyltetrahydro-2H-pyran-4-yl]-1-{[2-{2-[(6R,9S)-2,2-dioxido-2-thia-1,7-diazabicyclo[4.3.1]dec-9-yl]ethyl}-3-(trifluoromethyl)phenyl]carbamoyl}-2-(4-fluorophenyl)ethyl]carbamate] | 150
17 | COC(=O)N[C@H](C(=O)N[C@H]1CCC[C@@H]1CC[C@H]1CN[C@@H]2CCCS(=O)(=O)N1C2)[C@H](c1cncc(F)c1)c1ccc(Cl)c(F)c1 [Example 77, methyl [(1S,2S)-2-(4-chloro-3-fluorophenyl)-1-{[(1S,2R)-2-{2-[(6R,9S)-2,2-dioxido-2-thia-1,7-diazabicyclo[4.3.1]dec-9-yl]ethyl}cyclopentyl]carbamoyl}-2-(5-fluoropyridin-3-yl)ethyl]carbamate] | 57
18 | COC(=O)N[C@H](C(=O)N[C@H]1CCC[C@@H]1CC[C@H]1CN[C@@H]2CCCS(=O)(=O)N1C2)[C@@H](c1ccc(Cl)cc1)C1CCOC(C)(C)C1 (stereo partly drawn) [Example 29, Methyl [(1S,2R)-2-(4-chlorophenyl)-2-(2,2-dimethyltetrahydro-2H-pyran-4-yl)-1-{[(1S,2R)-2-{2-[(6R,9S)-2,2-dioxido-2-thia-1,7-diazabicyclo[4.3.1]dec-9-yl]ethyl}cyclopentyl]carbamoyl}ethyl]carbamate] | 23
19 | COC(=O)N[C@H](C(=O)Nc1cccc(F)c1CCC1CNC2CCCS(=O)(=O)N1C2)[C@H](CCC1CCCCO1)c1ccc(Cl)cc1 (stereo partly drawn) [Example 153, methyl [(1S,2R)-2-(4-chlorophenyl)-1-({2-[2-(2,2-dioxido-2-thia-1,7-diazabicyclo[4.3.1]dec-9-yl)ethyl]-3-fluorophenyl}carbamoyl)-4-(tetrahydro-2H-pyran-2-yl)butyl]carbamate] | 9.7
20 | COC(=O)N[C@H](C(=O)Nc1cccc(F)c1CC[C@H]1CN[C@@H]2CCCS(=O)(=O)N1C2)[C@@H](c1ccc(Cl)cc1)[C@H]1CC[C@H](OC)CC1 [Example 187, methyl {(1S,2R)-2-(4-chlorophenyl)-1-[(2-{2-[(6R,9S)-2,2-dioxido-2-thia-1,7-diazabicyclo[4.3.1]dec-9-yl]ethyl}-3-fluorophenyl)carbamoyl]-2-[(1r,4R)-4-methoxycyclohexyl]ethyl}carbamate] | 3.2
